Laboratory results taken from patent US20240216354A1, “IMMUNOMODULATORY IMIDE DRUGS AS ZETA-CHAIN-ASSOCIATED PROTEIN KINASE 70 (ZAP70) AGONISTS AND USES THEREOF” (Dana-Farber Cancer Institute, Inc., priority 2019, published 2024).

Key:
Zap-70 [1] = molecular target: T1, Zap-70 (Homo sapiens, UniProt P43403); experiment: Saturation-transfer difference (STD) NMR binding to recombinant Zap-70; design: purchased Origene, Rockville, MD; conditions: Pom 320 μM, Len 2.56 mM, ATP 2.56 mM, Zap-70 approximately 2 μM, deuterated PBS
T1 sequence (P43403 1-619): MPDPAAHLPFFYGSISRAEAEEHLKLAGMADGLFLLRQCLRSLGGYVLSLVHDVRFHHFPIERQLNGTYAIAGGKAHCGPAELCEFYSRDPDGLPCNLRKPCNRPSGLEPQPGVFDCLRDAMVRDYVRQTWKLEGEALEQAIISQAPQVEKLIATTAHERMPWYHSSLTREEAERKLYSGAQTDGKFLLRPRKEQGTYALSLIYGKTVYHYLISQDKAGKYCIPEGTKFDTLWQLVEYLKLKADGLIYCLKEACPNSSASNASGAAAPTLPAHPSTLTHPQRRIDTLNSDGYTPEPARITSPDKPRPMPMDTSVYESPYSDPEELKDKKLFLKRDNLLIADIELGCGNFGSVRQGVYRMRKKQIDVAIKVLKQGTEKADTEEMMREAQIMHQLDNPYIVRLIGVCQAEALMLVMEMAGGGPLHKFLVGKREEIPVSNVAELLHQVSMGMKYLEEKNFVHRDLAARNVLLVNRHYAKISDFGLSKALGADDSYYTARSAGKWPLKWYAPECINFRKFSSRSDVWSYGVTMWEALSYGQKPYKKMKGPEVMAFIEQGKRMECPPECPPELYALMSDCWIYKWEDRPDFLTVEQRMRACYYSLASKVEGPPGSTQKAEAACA
Method: (A) Jurkat cells were transfected with scrambled (Sc) siRNA or Zap-70 siRNA. Whole cell lysates were subjected to immunoblotting using indicated Abs. (B) Jurkat cells were treated with lenalidomide ([…]) or pomalidomide (1 and 3 μM) for 4 h and 8 h. Whole cell lysates were subjected to p-Zap ELISA assay. (C) Jurkat whole cell lysates were incubated with pomalidomide-beads in the presence or absence of competitor (1 mM free pomalidomide) for 1 h. After elution, samples were subjected to immunoblotting using anti-Zap-70 Ab. (D) Saturation-transfer difference resulting from the binding of pomalidomide to Zap-70. Pomalidomide is at 320 μM and Zap-70 is approximately 2 μM in deuterated PBS solution. […] (E) Saturation-transfer difference resulting from the binding of pomalidomide to Zap-70 in the presence of 2.56 mMATP. Pomalidomide is at 320 μM and Zap-70 is approximately 2 μM in deuterated PBS solution. […] Note that both ATP and pomalidomide show binding the Zap-70. (F) Non-cell based Zap-70 kinase assay was carried out, according to manufacturer's protocol.
(A) Saturation-transfer difference resulting from the binding of lenalidomide to Zap-70, with lenalidomide (2.56 mM) and Zap-70 (2 μM) in deuterated PBS solution. […] (B) Saturation-transfer difference resulting from the binding of lenalidomide to Zap70 in the presence of 2.56 mM ATP, with lenalidomide (2.56 mM) and Zap-70 (2 μM) in deuterated PBS solution.
Commercial recombinant Zap-70 (Origene, Rockville, MD) was prepared by gel filtration buffer exchange into deuterated phosphate-buffered saline (PBS), which removed any components of the protein storage buffer, including glycerol. Len and Pom were made as d6-DMSO stock solutions and frozen in aliquots prior to use. ATP was stored frozen in aliquots at −20° C. in deuterated PBS. NMR samples were prepared in 5 mm SampleJet tubes to a final volume of 500 μl by adding 5-20 μl of the appropriate IMiD stock solution to the buffer-exchanged protein. The final concentration of protein in the NMR samples was approximately 2 μM. […]

Zap-70 [2] = molecular target: T1, Zap-70; experiment: Immunoblotting of p-Zap-70 in Jurkat cells; type: cell-based; conditions: 16 h
Method: (A) PBMCs were cultured with pomalidomide (“Pom”) (0.01-1 μM) for 16 h. […] (B) PBMCs were cultured with pomalidomide (0.1 and 1 μM) for the indicated time periods. (C) PBMCs were cultured with lenalidomide (“Len”) (1 μM) for 16 h. (D) Primary T-cells from healthy volunteer were cultured with pomalidomide (0.25-1 μM) for 16 h. (E) Jurkat cells were cultured with pomalidomide (0.5 and 1 μM) for 16 h. Whole cell lysates were subjected to immunoblotting (A-E) using indicated Abs. (F) Jurkat cells were cultured with pomalidomide (0.01-1 μM) or lenalidomide (0.01-1 μM) for 72 h. Cell growth was assessed by MTT assay.
(A) Jurkat cells were transfected with scrambled siRNA (Scsi) or CRBN siRNA (CRBNsi). Whole cell lysates were subjected to immunoblotting using indicated Abs. (B) Jurkat cells transfected with Scsi or CRBNsi were cultured with pomalidomide (1 μM) for 16 h. Whole cell lysates were subjected to immunoblotting using indicated Abs. (C) Jurkat cells were transfected with Scsi or Zap-70 siRNA (Zap-70si) (left panel). The transfectants were further cultured for 72 h, and cell growth was assessed by MTT assay (right panel).

SMILES: Nc1cccc2c1C(=O)N(C1CCC(=O)NC1=O)C2=O (stereo not drawn) [pomalidomide]
- direct binding to Zap-70 (STD NMR) (Zap-70 [1]): directly binds to Zap-70
- p-Zap-70 induced by pomalidomide in CRBN-knockdown versus control Sc KD cells (Zap-70 [2]; CRBN siRNA, pomalidomide 1 μM): No significant change
- p-Zap-70 (immunoblotting) (Zap-70 [2]; pomalidomide 0.5 and 1 μM): similarly induced p-Zap-70 in Jurkat cells in a dose-dependent fashion
